{"source": "patent US8318940B2", "about": "“Naphthyridin-2 (1 H)-one compounds useful as antibacterials” (Glaxo Group Limited, priority 2009, dated 2012)", "tested_on": "Mycobacterium tuberculosis H37Rv", "test": "Mycobacterium tuberculosis H37Rv inhibition assay (MIC, resazurin)", "assay_type": "cell-based", "conditions": "ATCC 25618 / H37Rv, H37Rv strain (ATCC25618), Middlebrook 7H9, 37° C. six days, resazurin fluorescence after 48 hours"}
{"smiles": "O=c1ccc2ncc(F)cc2n1CCN1CCC(NCc2cnc(CO)c(Cl)c2)CC1", "note": "[Example 1, 1-{2-[4-({[5-chloro-6-(hydroxymethyl)-3-pyridinyl]methyl}amino)-1-piperidinyl]ethyl}-7-fluoro-1,5-naphthyridin-2(1H)-one]", "values": [{"measurement": "MIC", "result": "≤ 0.3", "unit": "µg/mL"}]}
{"smiles": "Cl.O=c1ccc2ncc(F)cc2n1CCN1CCC(NCc2cnc(CO)c(Cl)c2)CC1", "note": "[Example 2, 1-{2-[4-({[5-chloro-6-(hydroxymethyl)-3-pyridinyl]methyl}amino)-1-piperidinyl]ethyl}-7-fluoro-1,5-naphthyridin-2(1H)-one hydrochloride]", "values": [{"measurement": "MIC", "result": "≤ 0.3", "unit": "µg/mL"}]}
{"smiles": "O=c1ccc2ncc(F)cc2n1CCN1CC[C@H](NCc2cnc(CO)c(Cl)c2)[C@H](O)C1", "note": "[Example 3, 1-{2-[(3R,4S)-4-({[5-chloro-6-(hydroxymethyl)-3-pyridinyl]methyl}amino)-3-hydroxy-1-piperidinyl]ethyl}-7-fluoro-1,5-naphthyridin-2(1H)-one]", "values": [{"measurement": "MIC", "result": "≤ 0.3", "unit": "µg/mL"}]}
{"smiles": "Cl.O=c1ccc2ncc(F)cc2n1CCN1CC[C@H](NCc2cnc(CO)c(Cl)c2)[C@H](O)C1", "note": "[Example 4, 1-{2-[(3R,4S)-4-({[5-chloro-6-(hydroxymethyl)-3-pyridinyl]methyl}amino)-3-hydroxy-1-piperidinyl]ethyl}-7-fluoro-1,5-naphthyridin-2(1H)-one hydrochloride]", "values": [{"measurement": "MIC", "result": "≤ 0.3", "unit": "µg/mL"}]}
{"smiles": "COc1cnc2ccc(=O)n(CCN3CCC(NCc4cnc(CO)c(Cl)c4)CC3)c2c1", "note": "[Example 5, 1-{2-[4-({[5-chloro-6-(hydroxymethyl)-3-pyridinyl]methyl}amino)-1-piperidinyl]ethyl}-7-(methyloxy)-1,5-naphthyridin-2(1H)-one]", "values": [{"measurement": "MIC", "result": "≤ 0.3", "unit": "µg/mL"}]}
{"smiles": "O=c1ccc2ncc(F)cc2n1CCN1CCC(NCc2cnc(CO)c(Br)c2)CC1", "note": "[Example 6, 1-{2-[4-({[5-bromo-6-(hydroxymethyl)-3-pyridinyl]methyl}amino)-1-piperidinyl]ethyl}-7-fluoro-1,5-naphthyridin-2(1H)-one]", "values": [{"measurement": "MIC", "result": "≤ 0.3", "unit": "µg/mL"}]}
